The text below walks through data of patent US6090987A, “Metal-ligand complex catalyzed processes” (Union Carbide Chemicals & Plastics Technology Corporation, priority 1998, dated 2000).

Series [1] is described as follows: Long term catalyst stability, cycling between hydroformylation and simulated vaporizer conditions (Table 2, FIG. 2). Particulars: for Percent Deactivation/Day: butadiene 2 psi. The procedure: A series of long term catalyst stability experiments were conducted in the glass reactors in a continuous propylene hydroformylation mode. The reactor consisted of a three ounce pressure bottle submersed in an oil bath with a glass front for viewing. In each example about 20 milliliters of a freshly prepared rhodium catalytic precursor solution was charged to the reactor with a syringe after purging the system with nitrogen. Each precursor solution contained 200 parts per million of rhodium (calculated as free rhodium) introduced as rhodium dicarbonyl acetylacetonate, Ligand F and tetraglyme. The amount of Ligand F (free) employed was 0.4 weight percent.
After closing the reactor, the system was again purged with nitrogen and the oil bath was heated to 80° C., in order to furnish the desired hydroformylation. The hydroformylation reaction in each experiment was conducted at a total gas pressure of about 165 psig, the target partial pressure pressures of hydrogen, carbon monoxide, and propylene being about 45 psia, 45 psia, and 5 psia, respectively, the remainder being nitrogen. The flows of the feed gases (carbon monoxide, hydrogen, propylene, and nitrogen) were controlled individually with mass flow meters. The feed gases were dispersed into the precursor solution via stainless steel 7-micron filters used as spargers. The unreacted portion of the feed gases stripped out the product aldehydes. Examples 14, 15 and 16 were conducted at 80° C. for 2 hours. The feed gases were then turned off and either pure nitrogen or an 88 mole percent nitrogen, 12 mole percent butadiene mixture was fed to the reactor (see Table 2). The pressure of the reactor was then let down to the appropriate pressure so that the target butadiene pressure in the reactor could be achieved. The oil bath temperature was then ramped to 125° C. over a 5 minute period. The bath remained at 125° C. for 10 minutes. The bath was then cooled to 80° C. over a 6 minute period. […]

Series [2] in a line: Decomposition of free Ligand F and deactivated complex formation at 145° C. by HPLC (FIG. 3). The class given is physicochemical. Particulars: for deactivated complex concentration / free Ligand F concentration: 45 psig, treated with 1 ml 1,3-butadiene. The procedure:
A catalyst solution (5 milliliters), 600 parts per million in rhodium and 0.8 weight percent in Ligand F generated as in Example 2 was charged to a 3 ounce Fisher Porter bottle and alternately flushed evacuated with nitrogen, then placed in a 145° C. oil bath under nitrogen (80 psig total pressure) and then monitored by HPLC at 1 and 3 hours for the Ligand F and deactivated complex concentrations. The free Ligand F concentration was 0.75, 0.57 and 0.37 weight percent at 0, 1 and 3 hours, respectively, while the deactivated complex concentration was 0.010, 0.57 and 0.89 weight percent at 0, 1 and 3 hours respectively.
The same procedure as in Example 21 was followed except the catalyst solution was treated with 1 milliliter of 1,3-butadiene and then heated at 145° C. for 3 hours (45 psig total pressure). The free Ligand F concentration measured by HPLC (high pressure liquid chromatography) was 0.75, 0.66, and 0.62 weight percent at 0, 1 and 3 hours, respectively, while the deactivated complex concentration was 0.010, 0.012, and 0.05 weight percent at 0, 1 and 3 hours respectively.

Series [3] is described as follows: Propylene hydroformylation rate and colour of (TPP)3 Rh(CO)H catalyst after thermal treatment. Particulars: for hydroformylation rate: 100° C. The procedure:
TPP is triphenylphosphine. 15 grams of this bright yellow solution was charged to a Fisher Porter bottle under inert gas. To this solution was added 20 psi of butadiene with stirring. The pressure dropped as the butadiene dissolved into the solution. The reactor was repressured twice with butadiene (20 psig) and then the reaction was place under a total of 45 psig with nitrogen. The solution was heated to 120° C. for 15 minutes. […] At ambient temperature, the reaction was placed under vacuum for 4 hours to remove any excess butadiene.
Since the solvent has a very high boiling point, the concentration of rhodium was assumed to have remained unchanged while under vacuum. Indeed, no change in volume was detected visually while under vacuum. 15.0 milliliters of the 275 parts per million solution was charged to a 100 milliliter autoclave.
This example is a control for Example 23. 15 grams of the catalyst solution prepared in Example 23 was charged to a Fisher Porter bottle under inert gas. 45 psig of nitrogen was added to the reaction vessel, then the reaction was heated to 120° C. for 15 minutes. […] 15.0 milliliters of the 275 parts per million solution was charged to a 100 milliliter autoclave.
A catalyst solution was prepared by adding 113 milligrams of (TPP)3 Rh(CO)H to 40.4 grams Filmer IBT® available from Union Carbide Corporation, Danbury, Conn., resulting in a rhodium concentration of 312 parts per million. At this point, the rhodium complex was a suspended in the solvent. Approximately 20 grams of this solution of (TPP)3 Rh(CO)H in tetraglyme was charged to a Fisher Porter bottle under inert gas. To this solution was added 30 psi of butadiene with stirring. The pressure dropped to 20 psig as the butadiene dissolved into the solution. The reactor was repressured twice with butadiene (30 psig) and then the pressure was adjusted to 60 psig with nitrogen. The solution was placed into 140° C. oil bath, which caused the reaction to become homogeneous within a minute. The reaction was maintained at 140° C. for 50 minutes. […] The reaction vessel was removed from the oil bath and the butadiene was vented from the reactor while the reaction was hot. After gas evolution ceased, the reaction vessel was placed carefully placed under dynamic vacuum until gas evolution had ceased for 10 minutes. The reaction was then placed under a slight positive pressure of nitrogen. […] 15.0 milliliters of the 284 parts per million solution was charged to a 100 milliliter autoclave.
This example serves as a control for Example 25. Approximately 20 grams of the solution prepared in Example 25 was charged to a Fisher Porter bottle under inert gas. 60 psig of nitrogen was added to the reaction vessel, then the reaction was heated to 140° C. for approximately 110 minutes. […] This solution was place into and out of the oil bath at the same time as the solution in Example 25. After thermal treatment, 10 weight percent of triphenylphosphine was added to the reaction mixture. […] 15 milliliters of the 284 parts per million solution was charged to a 100 milliliter autoclave.

Turning to `C=CC=C` [Butadiene, 1,3-butadiene], the “influence on the catalyst (FIG. 2)” value in series [1] (cycling between 80° C. hydroformylation and 125° C. simulated vaporizer) was “stabilizing influence”. In addition, the “Percent Deactivation/Day” value in series [1] (separation temperature 125° C., butadiene/Rh molar ratio 45) is reported as 5 Percent/Day; in series [1] (separation temperature 135° C., butadiene/Rh molar ratio 55), 5 Percent/Day. Moreover, the figures for the deactivated complex concentration in series [2] (0 hours), in series [2] (1 hour) and in series [2] (3 hours) were 0.010 weight percent, 0.012 weight percent and 0.05 weight percent, respectively. Further, the “free Ligand F concentration” value in series [2] (0 hours) is 0.75 weight percent; in series [2] (1 hour) it was 0.66 weight percent; in series [2] (3 hours), 0.62 weight percent. Besides, the “decomposition of free Ligand F (FIG. 3)” value in series [2] (prior complexation of catalyst with butadiene) is reported as “suppresses decomposition of free Ligand F”. Moreover, the “color change of catalyst solution” value in series [3] (120° C. for 15 minutes under butadiene/nitrogen) is “No color change was observed”; in series [3] (140° C. for further 60 minutes, butadiene removed), “no observable color change”. The “color of catalyst solution” value in series [3] (140° C. for 50 minutes under butadiene/nitrogen) is reported as “maintained a bright yellow color”. Besides, the hydroformylation rate in series [3] (after 120° C. for 15 minutes with butadiene, 275 ppm Rh, 9.1 wt% triphenylphosphine, 115 psig) is listed as 1.4 gmol/L-h; in series [3] (after 140° C. for 50 minutes with butadiene and 60 minutes after venting, 284 ppm Rh, 95 psig), 1.0 gmol/L-h.
